The values that follow come from patent publication US20190151369A1, “Engineered Stem Cell Therapy for Cardiac Repair” (Emory University, priority 2014, published 2019).

Where no end group is shown, it is not given here. The star is where a group is joined. Palmitoyl = CCCCCCCCCCCCCCCC(=O)*

One series deals with RNVCMs. As to the kind of experiment: Live/Dead assay after H2O2 treatment (simulated ischemic injury in vitro). Particulars: H2O2 (200 μM) treatment. In kind it is cell-based. From the text:
Since oxidative stress in the ischemic heart is increasingly recognized as a possible cause for poor survival of transplanted cells, whether encapsulation of the CMs with PA-RGDS increases their survival when exposed to the H2O2 simulating ischemic condition in vitro was investigated.

Series [1] deals with mouse experimental MI. Put plainly: Echocardiography (EF, FS) in mouse myocardial infarction model. In kind it is in vivo. Particulars: up to 4 weeks after MI induction. From the text:
(§1) Myocardial infarction (MI) was induced in mice by ligation of the left anterior descending coronary artery, and cells or other reagents were intramyocardially injected through 30 G needles at two different sites in the border zone of the myocardium immediately after surgery. Mice were randomly assigned into four treatment groups: (i) PBS as a control group, (ii) 2×10^5 mESCs-derived CMs only, (iii) PA-RGDS only, or (iv) 2×10^5 mESCs-derived CMs encapsulated with PA-RGDS. Due to the limiting factor of murine heart size and the requirement to deliver a large quantity of cells, only one concentration ratio of PA […] to cells was used for the studies. All CMs were obtained from the same differentiation batch and prelabeled with CM-DiI (red fluorescence) before cell injection for cell tracking in histology.
Next, the therapeutic effects of treatments with CM only, PA-RGDS only and mESC-CMs with PA-RGDS, comparing with PBS control in ischemic myocardium in mice was investigated. Echocardiography was performed regularly to measure cardiac remodeling and function (FIG. 6A).
Prior studies reported that the beneficial effects from treatment with various types of stem cells or stem cell derived cells were substantially diminished by 3-4 weeks, mostly due to massive cell death or ejection from the myocardium. […] (FIG. 7A)

Series [2] in a line: Mechanical properties of self-assembled PA-RGDS gel (storage modulus). It is filed as physicochemical. From the text: Cardiomyocytes (CMs) derived from pluripotent stem cells (PSCs) including both embryonic stem cells (ESCs) and the induced pluripotent stem cells (iPSCs) are useful for generating new CMs in injured hearts, with PA-RGDS, which addresses low cell survival. The PA-RGDS provides a protective microenvironment for CMs in vivo. An important aspect of the PA-RGDS is the physical properties of the gels, which can be tuned to provide mechanical strength. […] PA-RGDS nanomatrix gels were also observed to be structurally stable with well-defined cylindrical shape and increased durability for handling and transport. This is particularly important for early cell survival, as cardiac tissue scaffolds require enough mechanical strength to resist the cardiac cycle, but enough flexibility to allow the contractile function of implanted CMs. The mechanical strength of PA-RGDS can be tuned for the application.

In series [3] the test system is mouse experimental MI. Put plainly: Scar area by Masson's trichrome staining of infarcted hearts. It is filed as in vivo. Particulars: 4 weeks after MI induction, N=6.
Source text: as §1
Masson's Trichrome staining was performed with fixed sections of infarcted hearts to evaluate the extent of scar formation 4 weeks after MI induction.

As to “CH3(CH2)14CONH-GTAGLIGQ-RGDS (Palmitoyl-GTAGLIGQRGDS) [PA-RGDS, gels made 1:1 with PA-S]”, in the series on RNVCMs, the “Live cells (Live/Dead assay) after H2O2” value is “increased cell survival”. For the same substance, the “Cardiac function (EF and FS) by echocardiography” value in the series with mouse experimental MI [1] is recorded as “dramatically reduced”. Besides, the “Storage modulus (G′)” value in series [2] is “around 100 Pa”. Also, the Scar area with mouse experimental MI [3] is reported as 41.7±4.7%.
